This passage reports TGI and GI50 results from PubChem BioAssay (NCI).

Some test systems named below: BT-549 breast; NCI-H522 lung; RXF 393 renal; NCI-H460 lung; MOLT-4 leukemia; MDA-MB-435; SNB-19 CNS; OVCAR-3 ovarian; T-47D breast; OVCAR-4 ovarian; UO-31 renal; M14 melanoma; KM12 colon; HS 578T breast; RPMI-8226 leukemia; HL-60(TB) leukemia; HOP-62 NSCLC; SF-268 CNS.
What all share (experiment): DTP human tumour cell line panel, 48 h

Several values for one entry are separate records, joined by “and”; a condition that tells them apart may be missing. Equal values may be shown once.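 Briefly, cells in 96-well plates were exposed to five compound concentrations for 48 h, and endpoints were estimated by linear interpolation. GI50 = concentration required for 50% inhibition of growth. Definition used: TGI = concentration required for complete inhibition of growth.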

Consider `CCCCCC(=O)N[C@@H](c1ccccc1)C(O)C(=O)OC1C[C@@]2(O)C(OC(=O)c3ccccc3)C3[C@](C)(C(=O)[C@H](O)C(=C1C)C2(C)C)C(OC1OCC(O)C(O)C1O)C[C@H]1OC[C@@]31OC(C)=O` (some centres not stated), for which the TGI in the test on BT-549 breast is over 100 µM; in the test on NCI-H522 lung, 3.92 µM; in the test with RXF 393 renal, over 41 µM; in the test with NCI-H460 lung, over 100 µM; in the test on MOLT-4 leukemia, over 100 µM; in the test with MDA-MB-435, 1.78 µM. In addition, the TGI with SNB-19 CNS was over 100 µM; in the test on OVCAR-3 ovarian, 5.2 µM; with T-47D breast it was over 100 µM; in the test with OVCAR-4 ovarian, over 100 µM; in the test on UO-31 renal, over 100 µM; in the test on M14 melanoma, over 88.1 µM. For the same compound, the TGI with KM12 colon was over 38.3 µM; in the test with HS 578T breast, 8.23 µM; with RPMI-8226 leukemia, over 100 µM; in the test on HL-60(TB) leukemia it was 7.79 µM; in the test with HOP-62 NSCLC, over 75.8 µM; with SF-268 CNS it was over 100 µM.

As for `O=C1NC(N/N=C\C(O)C(O)C(O)CO)=N/C1=C/c1ccc(Cl)cc1` (configuration not stated), the concentration for total growth inhibition (TGI) is over 100 µM with BT-549 breast; over 100 µM with NCI-H522 lung; over 100 µM in the test with RXF 393 renal; over 100 µM in the test on NCI-H460 lung; 55.6 µM and 61.4 µM in the test on MOLT-4 leukemia; over 100 µM in the test on MDA-MB-435. In addition, the TGI in the test on SNB-19 CNS is over 100 µM; in the test on OVCAR-3 ovarian it was 58.3 µM and 91.9 µM; with T-47D breast it was over 100 µM; with OVCAR-4 ovarian it was 57 µM; with UO-31 renal, over 100 µM; with M14 melanoma, 77.8 µM. Besides, the TGI is over 100 µM in the test with KM12 colon; over 100 µM with HS 578T breast; > 100 µM and 94.3 µM with RPMI-8226 leukemia; over 100 µM in the test on HL-60(TB) leukemia; over 100 µM with HOP-62 NSCLC; over 100 µM with SF-268 CNS.

For `Clc1ccc(Cc2nc3ccc(CCN4CCN(c5ccccc5)CC4)cc3[nH]2)cc1`, the TGI in the test on BT-549 breast was 34 µM; in the test with NCI-H522 lung, 28.4 µM; in the test with RXF 393 renal, 19.1 µM; in the test with NCI-H460 lung it was 27.8 µM; with MOLT-4 leukemia, 40.6 µM; with MDA-MB-435 it was 26.6 µM. Moreover, the TGI in the test on SNB-19 CNS is 41.6 µM; in the test on OVCAR-3 ovarian, 27 µM; in the test on T-47D breast, 33.6 µM; with OVCAR-4 ovarian, 37.3 µM; in the test with UO-31 renal it was 20.3 µM; in the test with M14 melanoma, 19.2 µM. Besides, the TGI in the test with KM12 colon is 24.1 µM; in the test on HS 578T breast it was 47.3 µM; with RPMI-8226 leukemia, 54.5 µM; in the test on HL-60(TB) leukemia it was over 100 µM; in the test on HOP-62 NSCLC it was 30.5 µM; in the test on SF-268 CNS it was over 100 µM.

For the compound `COC1=C(N=[N+]=[N-])C(=O)c2ncccc2C1=O`, the TGI stood at 23 µM with BT-549 breast; 3.9 µM with NCI-H522 lung; 11.9 µM with RXF 393 renal; 32.6 µM in the test with NCI-H460 lung; 2.86 µM with MOLT-4 leukemia; 4.41 µM in the test on MDA-MB-435. Also, the TGI turned out to be 30.9 µM with SNB-19 CNS; 15.5 µM in the test with OVCAR-3 ovarian; 3.85 µM in the test on T-47D breast; 5.7 µM in the test on OVCAR-4 ovarian; 27.6 µM in the test with UO-31 renal; 8.66 µM in the test on M14 melanoma. The TGI in the test with KM12 colon amounted to 29.5 µM; with HS 578T breast it was 48.6 µM; with RPMI-8226 leukemia, 4.89 µM; in the test with HL-60(TB) leukemia, 3.98 µM; in the test on HOP-62 NSCLC it was 29.4 µM; in the test with SF-268 CNS, 28.5 µM.

Turning to `O=C1Sc2ccc(Br)cc2C(=O)Sc2ccccc21`, the TGI was 28.2 µM in the test on BT-549 breast; 22.1 µM in the test with NCI-H522 lung; 12.4 µM in the test with RXF 393 renal; 34 µM in the test with NCI-H460 lung; 19.9 µM in the test with MOLT-4 leukemia; 21.7 µM in the test with MDA-MB-435. Besides, the TGI in the test with SNB-19 CNS worked out at 29.5 µM; with OVCAR-3 ovarian, 27.2 µM; in the test with T-47D breast it was 31 µM; in the test on OVCAR-4 ovarian it was 29.8 µM; with UO-31 renal it was 27.1 µM; in the test with M14 melanoma, 26.6 µM. For the same compound, the TGI with KM12 colon is 33.8 µM; in the test on HS 578T breast, 39.3 µM; in the test on RPMI-8226 leukemia, 16.7 µM; in the test with HL-60(TB) leukemia, 9.71 µM; with HOP-62 NSCLC, 28.4 µM; in the test on SF-268 CNS, 22.3 µM.

In the case of `Clc1nc(Cl)c(Cl)c(Cl)n1`, the concentration for total growth inhibition (TGI) in the test on BT-549 breast is 42.4 µM; with NCI-H522 lung it was 35 µM; in the test with RXF 393 renal it was 35 µM; in the test on NCI-H460 lung, 51.9 µM; with MOLT-4 leukemia, 15.5 µM; in the test on MDA-MB-435 it was over 61 µM. Further, the TGI in the test on SNB-19 CNS was found to be 38.8 µM; in the test with OVCAR-3 ovarian it was 31.7 µM; in the test with T-47D breast, 41 µM; with OVCAR-4 ovarian, 46.8 µM; in the test on UO-31 renal, 46.4 µM; in the test on M14 melanoma it was 34.4 µM. Further, the TGI in the test on KM12 colon is 28.9 µM; with HS 578T breast, 53.7 µM; in the test on RPMI-8226 leukemia it was over 100 µM; with HL-60(TB) leukemia, 33.1 µM; in the test with HOP-62 NSCLC it was 35.7 µM; in the test with SF-268 CNS, 56.9 µM.

Consider `Cc1cc(CNC(=O)OCc2ccccc2)c(C)c2c1Oc1ccccc1O2`, for which the TGI in the test on BT-549 breast is over 100 µM; with NCI-H522 lung, 90.7 µM; in the test on RXF 393 renal it was 32.6 µM; in the test on NCI-H460 lung it was over 100 µM; with MOLT-4 leukemia, over 100 µM; in the test on MDA-MB-435 it was over 100 µM. Also, the TGI with SNB-19 CNS is over 92.9 µM; with OVCAR-3 ovarian it was over 100 µM; in the test on T-47D breast, over 100 µM; in the test with OVCAR-4 ovarian it was 72.3 µM; in the test with UO-31 renal, over 100 µM; in the test with M14 melanoma, over 100 µM. Further, the TGI in the test on KM12 colon is over 100 µM; in the test on HS 578T breast it was 53.6 µM; with RPMI-8226 leukemia it was over 100 µM; in the test with HL-60(TB) leukemia, over 100 µM; in the test with HOP-62 NSCLC, 53.3 µM; with SF-268 CNS it was over 74.3 µM. Moreover, the GI50 with HL-60(TB) leukemia was over 100 µM.
